BigSolDB 2.1

CC1(C)[C@H](C(=O)O)N2C(=O)[C@@H](NC(=O)Cc3ccccc3)[C@H]2S1=O (stereo partly drawn)
Details	solubility (mole fraction)
in MIBK, 278.15 K	0.00173
in MIBK, 287.85 K	0.00184
in MIBK, 295.15 K	0.00201
in MIBK, 297.95 K	0.00213
in MIBK, 303.35 K	0.00227
in MIBK, 308.05 K	0.00238
in MIBK, 313.35 K	0.00262
in MIBK, 317.65 K	0.00278
in MIBK, 323.75 K	0.00316
in ethyl acetate, 273.15 K	0.00211
in ethyl acetate, 278.15 K	0.00222
in ethyl acetate, 283.25 K	0.00227
in ethyl acetate, 288.15 K	0.00233
in ethyl acetate, 292.75 K	0.00256
in ethyl acetate, 298.55 K	0.0028
in ethyl acetate, 303.15 K	0.00316
in ethyl acetate, 307.45 K	0.00338
in ethyl acetate, 312.85 K	0.00383
in ethyl acetate, 317.65 K	0.0044
in ethyl acetate, 321.25 K	0.00486
in n-butyl acetate, 273.15 K	0.000603
in n-butyl acetate, 278.25 K	0.000678
in n-butyl acetate, 281.95 K	0.000735
in n-butyl acetate, 287.65 K	0.000825
in n-butyl acetate, 292.55 K	0.000979
in n-butyl acetate, 297.35 K	0.0011
in n-butyl acetate, 302.95 K	0.00134
in n-butyl acetate, 307.65 K	0.00151
in n-butyl acetate, 312.65 K	0.00166
in n-butyl acetate, 317.65 K	0.00192
in toluene, 283.15 K	2.74e-05
in toluene, 288.35 K	3.68e-05
in toluene, 293.95 K	5.26e-05
in toluene, 298.15 K	6.12e-05
in toluene, 303.45 K	6.97e-05
in toluene, 311.65 K	8.7e-05
in toluene, 316.85 K	0.000105
in toluene, 323.65 K	0.000113
